In US5843908A, “Pradimicins l and fl, and derivatives thereof” (Bristol-Myers Squibb Company, priority 1990, dated 1998):
≈ marks a conversion by molar mass, not a printed value.

Columns and labels:
[1] = tested on: Aspergillus fumigatus IAM 2034; assay: In vitro antifungal activity, serial agar dilution, yeast morphology agar (Tables 4b, 4c); format: cell-based; conditions: IAM2034, 60 h, 1/15 M phosphate buffer, 10^6 cells/ml, 40 hours at 28° C.
Method: (§1) Representative compounds of the present invention were tested in vitro against various fungi by serial agar dilution method in either Sabouraud dextrose agar or yeast morphology agar containing 1/15 M phosphate buffer. Thus, approximately 0.003 ml of fungal suspension containing 10^6 -10^7 cells/ml was applied to the surface of agar plates containing the test antibiotic. The minimum inhibitory concentration (MIC) values for the test compounds were recorded after the cultures had been incubated for 40-60 hours at 28° C.
(§2) ^1. Determined after incubation for 40 hours at 28° C.
(§3) (Trichophyton mentagrophytes: 60 hours, 28° C.).
(§4) ^2. Inoculum size 10^6 cells/ml (Trichophyton mentagrophytes:
(§5) 10^7 cells/ml) in yeast morphology agar containing 1/15 M phosphate
(§6) (Trichophyton mentaprophytes: 60 hours, 28° C.).

[2] = tested on: Candida albicans 83-2-14 (Juntendo); assay: as above; format: cell-based; conditions: 60 h, 1/15 M phosphate buffer, 10^6 cells/ml, 40 hours at 28° C.
Method: as §1, §2, §3, §4, §5, §6

[3] = tested on: Candida albicans A9540; assay: as above; format: cell-based; conditions: 60 h, 1/15 M phosphate buffer, 10^6 cells/ml, 40 hours at 28° C.
Method: as §1, §2, §3, §4, §5, §6

[4] = tested on: Candida albicans ATCC 32354 (B311); assay: as above; format: cell-based; conditions: ATCC32354, 60 h, 1/15 M phosphate buffer, 10^6 cells/ml, 40 hours at 28° C.
Method: as §1, §2, §3, §4, §5, §6

[5] = tested on: Candida tropicalis 85-8 (Kitasato); assay: as above; format: cell-based; conditions: 60 h, 1/15 M phosphate buffer, 10^6 cells/ml, 40 hours at 28° C.
Method: as §1, §2, §3, §4, §5, §6

[6] = tested on: Candida tropicalis IAM 10241; assay: as above; format: cell-based; conditions: IAM10241, 60 h, Candida tropicalis IAM 10241 ("IAN 10241" in Table 4b), 1/15 M phosphate buffer, 10^6 cells/ml, 40 hours at 28° C.
Method: as §1, §2, §3, §4, §5, §6

[7] = tested on: Cryptococcus neoformans D49; assay: as above; format: cell-based; conditions: 60 h, 1/15 M phosphate buffer, 10^6 cells/ml, 40 hours at 28° C.
Method: as §1, §2, §3, §4, §5, §6

[8] = tested on: Cryptococcus neoformans IAM 4514; assay: as above; format: cell-based; conditions: IAM4514, 60 h, 1/15 M phosphate buffer, 10^6 cells/ml, 40 hours at 28° C.
Method: as §1, §2, §3, §4, §5, §6

[9] = tested on: Saccharomyces cerevisiae ATCC 9763; assay: as above; format: cell-based; conditions: ATCC9763, 60 h, 1/15 M phosphate buffer, 10^6 cells/ml, 40 hours at 28° C.
Method: as §1, §2, §3, §4, §5, §6

[10] = tested on: Trichophyton mentagrophytes #4329; assay: as above; format: cell-based; conditions: 1/15 M phosphate buffer, 10^7 cells/ml, 60 hours, 28° C.
Method: as §1, §2, §3, §4, §5, §6

[11] = tested on: A. fumigatus IAM2034; assay: In vitro antifungal activity, serial agar dilution, Sabouraud dextrose agar (Table 4a); format: cell-based; conditions: Aspergillus fumigatus, 10^6 CFU/ml, 40-60 hours at 28° C.
Method: as §1
(§7) Medium: Sabouraud dextrose agar

[12] = tested on: Aspergillus fumigatus IAM2530; assay: as above; format: cell-based; conditions: 10^6 CFU/ml, 40-60 hours at 28° C.
Method: as §1, §7

[13] = tested on: Blastomyces dermatitidis D40; assay: as above; format: cell-based; conditions: 10^6 CFU/ml, 40-60 hours at 28° C.
Method: as §1, §7

[14] = tested on: C. albicans A9540; assay: as above; format: cell-based; conditions: Candida albicans, 10^6 CFU/ml, 40-60 hours at 28° C.
Method: as §1, §7

[15] = tested on: C. neoformans IAM4514; assay: as above; format: cell-based; conditions: Cryptococcus neoformans, 10^6 CFU/ml, 40-60 hours at 28° C.
Method: as §1, §7

[16] = tested on: Candida albicans IAM4888; assay: as above; format: cell-based; conditions: 10^6 CFU/ml, 40-60 hours at 28° C.
Method: as §1, §7

[17] = tested on: Cryptococcus neoformans D49; assay: as above; format: cell-based; conditions: 10^6 CFU/ml, 40-60 hours at 28° C.
Method: as §1, §7

[18] = tested on: Fusarium moniliforme A2284; assay: as above; format: cell-based; conditions: Fusarium verticillioides, 10^6 CFU/ml, 40-60 hours at 28° C.
Method: as §1, §7

[19] = tested on: Mucor spinosus IF05317; assay: as above; format: cell-based; conditions: 10^6 CFU/ml, 40-60 hours at 28° C.
Method: as §1, §7

[20] = tested on: Petriellidium boydii IF08078; assay: as above; format: cell-based; conditions: Scedosporium boydii, 10^6 CFU/ml, 40-60 hours at 28° C.
Method: as §1, §7

[21] = tested on: Sporothrix schenckii IF08158; assay: as above; format: cell-based; conditions: 10^6 CFU/ml, 40-60 hours at 28° C.
Method: as §1, §7

[22] = tested on: T. mentagrophytes #4329; assay: as above; format: cell-based; conditions: Trichophyton mentagrophytes, 10^6 CFU/ml, 40-60 hours at 28° C.
Method: as §1, §7

[23] = tested on: Trichophyton mentagrophytes D155; assay: as above; format: cell-based; conditions: 10^6 CFU/ml, 40-60 hours at 28° C.
Method: as §1, §7

[24] = tested on: Candida albicans ATCC 38247 (polyene-R); assay: In vitro antifungal activity, serial agar dilution, yeast morphology agar (Table 4b); format: cell-based; conditions: ATCC38247, 60 h
Method: as §1, §2, §3, §4, §5

[25] = Solubility; format: physicochemical

SMILES	MIC [1]	MIC [2]	MIC [3]	MIC [4]	MIC [5]	MIC [6]	MIC [7]	MIC [8]	MIC [9]	MIC [10]	MIC [11]	MIC [12]	MIC [13]	MIC [14]	MIC [15]	MIC [16]	MIC [17]	MIC [18]	MIC [19]	MIC [20]	further results
COc1cc(O)c2c(c1)C(=O)c1c(cc3c(c1O)-c1c(cc(C)c(C(=O)N[C@H](CO)C(=O)O)c1O)[C@H](O[C@@H]1O[C@H](C)[C@H](N(C)C)[C@H](O[C@@H]4O[C@H](CO)[C@@H](O)[C@H](O)[C@H]4O)[C@H]1O)[C@H]3O)C2=O [N-Methyl Pradimicin FL]	6.3 µg/mL (≈ 6.99 µM)	6.3 µg/mL (≈ 6.99 µM)	6.3 µg/mL (≈ 6.99 µM)	6.3 µg/mL (≈ 6.99 µM)	12.5 µg/mL (≈ 13.9 µM)	12.5 µg/mL (≈ 13.9 µM)	6.3 µg/mL (≈ 6.99 µM)	6.3 µg/mL (≈ 6.99 µM)	3.1 µg/mL (≈ 3.44 µM)	6.3 µg/mL (≈ 6.99 µM)	–	–	–	–	–	–	–	–	–	–	–
COc1cc(O)c2c(c1)C(=O)c1c(cc3c(c1O)-c1c(cc(C)c(C(=O)N[C@H](C)C(=O)O)c1O)[C@H](O[C@@H]1O[C@H](C)[C@H](N(C)C)[C@H](O[C@@H]4O[C@H](CO)[C@@H](O)[C@H](O)[C@H]4O)[C@H]1O)[C@H]3O)C2=O [N-Methyl Pradimicin L]	–	–	–	–	–	–	–	–	–	–	6.3 µg/mL (≈ 7.12 µM)	6.3 µg/mL (≈ 7.12 µM)	6.3 µg/mL (≈ 7.12 µM)	12.5 µg/mL (≈ 14.1 µM)	6.3 µg/mL (≈ 7.12 µM)	12.5 µg/mL (≈ 14.1 µM)	6.3 µg/mL (≈ 7.12 µM)	12.5 µg/mL (≈ 14.1 µM)	> 100 µg/mL	25 µg/mL (≈ 28.3 µM)	MIC [21]: 1.6 µg/mL (≈ 1.81 µM); MIC [22]: 25 µg/mL (≈ 28.3 µM); MIC [23]: 25 µg/mL (≈ 28.3 µM)
CN[C@@H]1[C@H](O[C@@H]2OC[C@@H](O)[C@H](O)[C@H]2O)[C@@H](O)[C@H](O[C@H]2c3cc(C)c(C(=O)N[C@H](C)C(=O)O)c(O)c3-c3c(cc4c(c3O)C(=O)c3cc(OC)cc(O)c3C4=O)[C@@H]2O)O[C@@H]1C [Pradimicin A, pradimicin A, reference compound]	1.6 µg/mL (≈ 1.9 µM)	12.5 µg/mL (≈ 14.9 µM)	12.5 µg/mL (≈ 14.9 µM)	6.3 µg/mL (≈ 7.49 µM)	12.5 µg/mL (≈ 14.9 µM)	> 100 µg/mL	1.6 µg/mL (≈ 1.9 µM)	1.6 µg/mL (≈ 1.9 µM)	6.3 µg/mL (≈ 7.49 µM)	3.1 µg/mL (≈ 3.69 µM)	3.1 µg/mL (≈ 3.69 µM)	1.6 µg/mL (≈ 1.9 µM)	6.3 µg/mL (≈ 7.49 µM)	100 µg/mL (≈ 119 µM)	1.6 µg/mL (≈ 1.9 µM)	6.3 µg/mL (≈ 7.49 µM)	1.6 µg/mL (≈ 1.9 µM)	6.3 µg/mL (≈ 7.49 µM)	> 100 µg/mL	6.3 µg/mL (≈ 7.49 µM)	MIC [21]: 1.6 µg/mL (≈ 1.9 µM); MIC [22]: 6.3 µg/mL (≈ 7.49 µM); MIC [23]: 1.6 µg/mL (≈ 1.9 µM); MIC [24]: 6.3 µg/mL (≈ 7.49 µM)
CN[C@@H]1[C@H](O[C@@H]2O[C@H](CO)[C@@H](O)[C@H](O)[C@H]2O)[C@@H](O)[C@H](O[C@H]2c3cc(C)c(C(=O)N[C@H](CO)C(=O)O)c(O)c3-c3c(cc4c(c3O)C(=O)c3cc(OC)cc(O)c3C4=O)[C@@H]2O)O[C@@H]1C [Pradimicin FL, pradimicin FL]	3.1 µg/mL (≈ 3.5 µM)	6.3 µg/mL (≈ 7.1 µM)	6.3 µg/mL (≈ 7.1 µM)	6.3 µg/mL (≈ 7.1 µM)	6.3 µg/mL (≈ 7.1 µM)	6.3 µg/mL (≈ 7.1 µM)	3.1 µg/mL (≈ 3.5 µM)	1.6 µg/mL (≈ 1.8 µM)	3.1 µg/mL (≈ 3.5 µM)	3.1 µg/mL (≈ 3.5 µM)	–	–	–	–	–	–	–	–	–	–	MIC [24]: 3.1 µg/mL (≈ 3.5 µM)
CN[C@@H]1[C@H](O[C@@H]2O[C@H](CO)[C@@H](O)[C@H](O)[C@H]2O)[C@@H](O)[C@H](O[C@H]2c3cc(C)c(C(=O)N[C@H](C)C(=O)O)c(O)c3-c3c(cc4c(c3O)C(=O)c3cc(OC)cc(O)c3C4=O)[C@@H]2O)O[C@@H]1C [Pradimicin L, pradimicin L]	3.1 µg/mL (≈ 3.56 µM)	100 µg/mL (≈ 115 µM)	25 µg/mL (≈ 28.7 µM)	6.3 µg/mL (≈ 7.23 µM)	> 100 µg/mL	100 µg/mL (≈ 115 µM)	1.6 µg/mL (≈ 1.84 µM)	0.8 µg/mL (≈ 0.919 µM)	6.3 µg/mL (≈ 7.23 µM)	3.1 µg/mL (≈ 3.56 µM)	3.1 µg/mL (≈ 3.56 µM)	3.1 µg/mL (≈ 3.56 µM)	3.1 µg/mL (≈ 3.56 µM)	12.5 µg/mL (≈ 14.4 µM)	0.8 µg/mL (≈ 0.919 µM)	6.3 µg/mL (≈ 7.23 µM)	0.8 µg/mL (≈ 0.919 µM)	6.3 µg/mL (≈ 7.23 µM)	> 100 µg/mL	25 µg/mL (≈ 28.7 µM)	MIC [21]: 0.8 µg/mL (≈ 0.919 µM); MIC [22]: 12.5 µg/mL (≈ 14.4 µM); MIC [23]: 6.3 µg/mL (≈ 7.23 µM); MIC [24]: 3.1 µg/mL (≈ 3.56 µM); Solubility ([25]; dimethyl sulfoxide, dimethyl-formamide, acidic or alkaline water): Soluble in dimethyl sulfoxide, dimethyl-formamide, and acidic or alkaline water; Solubility ([25]; ethanol, methanol, and water): slightly soluble in ethanol, methanol, and water
